Patent US20050209157A1, “Short bioactive peptides and methods for their use” (priority 2001, published 2005)
No end group written: not given here.

Assays:
WI38 = details: MTT, 24 hours with peptide; for WI38 LD50: normal fibroblast line; for LD50 WI38: WI38 normal lung fibroblast line
in vitro [1] = details: human, WI38 normal lung fibroblast cells, 24 hours with peptide
[2] = system: human red blood cells (RBC); experiment: in vitro; assay type: cell-based; details: hemolytic assay, concentration at 50% hemolysis, 1 hour at 37° C.
HeLaS3 = experiment: Anti-cancer assay, MTT, LD50; assay type: cell-based; details: 24 hours with peptide, cervical carcinoma
From the text: (§1) Numbers are LD50 values (μg/mL).

H1299 = experiment: Anti-cancer assay, MTT, LD50; assay type: cell-based; details: 24 hours with peptide, lung large cell carcinoma
From the text: as §1

SW480 = experiment: Anti-cancer assay, MTT, LD50; assay type: cell-based; details: SW480 colon adenocarcinoma line, 24 hours with peptide
From the text: as §1

BMKC = experiment: Anti-cancer assay, MTT, LD50; assay type: cell-based; details: BMKC cloned melanoma line, 24 hours with peptide
From the text: as §1

PC3 = experiment: Anti-cancer assay, MTT, LD50; assay type: cell-based; details: 24 hours with peptide, prostate adenocarcinoma
From the text: as §1

MCF7 = experiment: Anti-cancer assay, MTT, LD50; assay type: cell-based; details: MCF7 breast adenocarcinoma line, MTT, 24 hours with peptide
From the text: as §1

[3] = system: yeast (Saccharomyces cerevisiae); experiment: Antimicrobial assay I, yeast assay in RPMI 1640; assay type: cell-based; details: RPMI 1640 media
Description: The data for the following antimicrobial assay of the peptides have been obtained by making OD measurements in in vitro cell culture experiments with and without added peptide. The protocol used is as follows.
Absorbance was read at 620 nm after shaking to resuspend cells.
The yeast assay was performed in RPMI 1640 media (pH 7.0 at 25° C.).
Staph6538 is Staphylococcus aureus ATCC accession number 6538; paerug9027 is Pseudomonas aeruginosa ATCC accession number 9027, yeast is Saccharomyces cerevisiae.

[4] = system: Pseudomonas aeruginosa ATCC 9027; experiment: Antimicrobial assay I, MIC by OD measurement; assay type: cell-based; details: 37° C. for 24 hours, absorbance 620 nm
[5] = system: Staphylococcus aureus ATCC 6538; experiment: Antimicrobial assay I, MIC by OD measurement; assay type: cell-based; details: 37° C. for 24 hours, absorbance 620 nm
[6] = system: human leukocyte (WBC) cells; experiment: Stimulation and proliferation of leukocytes, Alamar Blue; assay type: cell-based; details: compared to untreated positive control cells; Alamar Blue
Description: In vitro viability of human leukocyte cells in the presence of different peptides at different concentrations was determined by an Alamar Blue protocol. Alamar Blue (Promega, Madison, Wis.) is an indicator dye, formulated to measure quantitatively the proliferation and cytotoxicity of the cells. The dye consists of an oxidation-reduction (redox) indicator that yields a calorimetric change and a fluorescent signal in response to cellular metabolic activity.
Assay protocol: Blood from a human was drawn and centrifuged at 1500 rpm for 15 minutes at room temperature. The buffy coat cells at the plasma-red blood cell interface were aspirated. Buffy coat cells (mainly lymphocyte cells) were then transferred into 15 ml centrifuge tubes containing 5 ml of RPMI-1640 medium+10% Fetal Bovine Serum (Gibco, Grand Island, N.Y.). Additional medium was added to the tubes to bring the volume up to 10 ml. The buffy coat suspension was then carefully layered on 5 ml of Histopaque (Sigma Chemical Co., St. Louis, Mo.) and centrifuged at 1500 rpm for 30 minutes at room temperature. The interface which is mostly PBMCs (peripheral mononuclear cells) was aspirated and transferred to a 15 ml conical centrifuge tube and, resuspended in 2 ml cold RPMI-1640 and brought up to 15 ml with cold RPMI-1640 medium. Cells were centrifuged at 1500 rpm for 10 minutes. The supernatant was then aspirated and discarded. The cell pellet was re-suspended in 1 ml of cold RPMI 1640 and brought up to 15 ml with RPMI medium. This step was repeated twice, except that in the last step, the cells were resuspended with 1 ml of cold RPMI-1640 medium and cell counts were performed with a hemocytometer according to the Sigma cell culture catalogue.
Pokewood mitogen was used as a control along with positive and negative controls. Negative control cells were killed with 70% methanol. Positive (+) control cells were incubated in RPMI medium (untreated). […] of AlamarBlue was added to the cells, and readings were taken after 24 hours, 48 hours, 72 hours, and 96 hours using a fluorimeter (excitation 544/transmission 590 nm).
Calculations were performed using the following formula. The peptide treated sample and positive control were adjusted for negative control. [formula]
Using the protocol described immediately above, about 100-150 peptides were screened for their stimulatory and/or inhibitory actions upon the growth of human leukocyte (“WBC”) cells as compared to the growth of untreated positive control cells.
The Alamar Blue stain used in the protocol permeates both cell and nuclear membranes, and is metabolized in the mitochondria to cause the change in color. The resulting fluorometric response is therefore a result of total mitochondrial activity caused by cell stimulation and/or mitosis (cell proliferation).

in vitro [7] = assay type: cell-based, human; details: human, human red blood cells, pH 7, hemolytic assay, concentration at 50% hemolysis, 1 hour at 37° C.; read-out: LD50
[8] = LD50 WI38, WI38 normal lung fibroblast line, MTT

Substance | WI38 LD50 (WI38) | CC50 at 24 h (in vitro [1]; [8]) | LD50 [2] | HeLaS3 LD50 (HeLaS3) | H1299 LD50 (H1299) | LD50 SW480 (SW480) | LD50 BMKC (BMKC) | PC3 LD50 (PC3) | LD50 MCF7 (MCF7) | yeast (MIC or MFC) [3] | paerug9027 (MIC) [4] | staph6538 (MIC) [5] | LD50 WI38 (WI38) | stimulatory and/or inhibitory action on growth of human leukocyte (WBC) cells [6] | HC50 at 1 h (in vitro [7]) | CC50 at 24 h (in vitro [1]; WI38 LD50, MTT, normal fibroblast line)
KLAKKLAKLAKLAKAL-OH [P160, reference compound] | 700 µg/mL | 700 µg/mL | > (> indicates greater than 1000) | 550 µg/mL | 470 µg/mL | 370 µg/mL | 220 µg/mL | 450 µg/mL | 320 µg/mL | – | – | – | – | – | – | –
MPKWKVFKKIEKVGRNIRNGIVKAGPAIAVLGEAKALG-OH [P5, reference compound] | – | – | > (> indicates greater than 1000) | – | – | – | – | – | – | > (> indicates greater than 200 μg/mL) | 50 µg/mL | 100 µg/mL | – | – | – | –
FAKKALKALKKL-NH2 [P47] | > (> indicates greater than 1000) | – | > (> indicates greater than 1000) | > (> indicates greater than 1000) | > (> indicates greater than 1000) | > (> indicates greater than 1000) | 700 µg/mL | > (> indicates greater than 1000) | 575 µg/mL | 50 µg/mL | 100 µg/mL | 200 µg/mL | > (> indicates greater than 1000) | – | – | –
FAFAKIIAKIAKKII-NH2 [P140] | > (> indicates greater than 1000) | – | > (> indicates greater than 1000) | 285 µg/mL | > (> indicates greater than 1000) | > (> indicates greater than 1000) | > (> indicates greater than 1000) | > (> indicates greater than 1000) | > (> indicates greater than 1000) | > (> indicates greater than 200 μg/mL) | > (> indicates greater than 200 μg/mL) | > (> indicates greater than 200 μg/mL) | > (> indicates greater than 1000) | – | – | –
FAKLF-NH2 [P129, FAKLF-NH2] | > (> indicates greater than 1000) | – | > (> indicates greater than 1000) | 550 µg/mL | 790 µg/mL | 550 µg/mL | > (> indicates greater than 1000) | > (> indicates greater than 1000) | > (> indicates greater than 1000) | 100 µg/mL | 25 µg/mL | 100 µg/mL | > (> indicates greater than 1000) | – | – | –
FALKALKKAL-NH2 [P170, FALKALKKAL-NH2] | > (> indicates greater than 1000) | – | > (> indicates greater than 1000) | > (> indicates greater than 1000) | > (> indicates greater than 1000) | > (> indicates greater than 1000) | > (> indicates greater than 1000) | > (> indicates greater than 1000) | 940 µg/mL | 100 µg/mL | 100 µg/mL | 200 µg/mL | > (> indicates greater than 1000) | – | – | –
VALALKALKKLAKKLKKLAKKAL-NH2 [P509] | – | – | – | – | – | – | – | – | – | – | – | – | – | stimulatory (and/or proliferative) at all concentrations through 500 μg/ml | 40 µg/mL | –
KKVVFKVKFK-NH2 [P302, reference compound] | 800 µg/mL | 800 µg/mL | > (> indicates greater than 1000) | > (> indicates greater than 1000) | 720 µg/mL | > (> indicates greater than 1000) | 700 µg/mL | > (> indicates greater than 1000) | 340 µg/mL | – | – | – | – | – | – | –
FKLAFKLAKKAFL-NH2 [P122] | 720 µg/mL | 720 µg/mL | > (> indicates greater than 1000) | 780 µg/mL | 830 µg/mL | 570 µg/mL | 700 µg/mL | 800 µg/mL | 360 µg/mL | – | – | – | – | – | – | –
FALALKALKKA-NH2 [P176] | – | – | > (> indicates greater than 1000) | – | – | – | – | – | – | > (> indicates greater than 200 μg/mL) | > (> indicates greater than 200 μg/mL) | > (> indicates greater than 200 μg/mL) | – | – | – | –
KFKKLAKKF-NH2 [P174] | > (> indicates greater than 1000) | – | > (> indicates greater than 1000) | > (> indicates greater than 1000) | > (> indicates greater than 1000) | > (> indicates greater than 1000) | > (> indicates greater than 1000) | > (> indicates greater than 1000) | > (> indicates greater than 1000) | – | – | – | > (> indicates greater than 1000) | – | – | –
FAKKLAKKLKKLAKKLAK-OH [Shiva 10(1-18_AC] | – | – | > (> indicates greater than 1000) | – | – | – | – | – | – | – | – | – | – | – | – | –
KFKKLAKKW-NH2 [P175] | > (> indicates greater than 1000) | – | > (> indicates greater than 1000) | 510 µg/mL | > (> indicates greater than 1000) | 70 µg/mL | > (> indicates greater than 1000) | > (> indicates greater than 1000) | > (> indicates greater than 1000) | – | – | – | > (> indicates greater than 1000) | – | – | –
YAKLLAKLAKKAL-NH2 [P155, YAKLLAKLAKKAL-NH2] | > (> indicates greater than 1000) | – | > (> indicates greater than 1000) | > (> indicates greater than 1000) | > (> indicates greater than 1000) | > (> indicates greater than 1000) | > (> indicates greater than 1000) | – | > (> indicates greater than 1000) | > (> indicates greater than 200 μg/mL) | > (> indicates greater than 200 μg/mL) | > (> indicates greater than 200 μg/mL) | > (> indicates greater than 1000) | – | – | –
FAKLLAKLAKKAA-NH2 [P93] | – | – | > (> indicates greater than 1000) | > (> indicates greater than 1000) | 320 µg/mL | – | – | 690 µg/mL | – | – | – | – | – | – | – | 530 µg/mL
